Experimental data taken from article PMC7551591, “The Effect of Resveratrol or Curcumin on Head and Neck Cancer Cells Sensitivity to the Cytotoxic Effects of Cisplatin” (Nutrients, 2020).

Test system: PE/CA-PJ49 tumor cells
Experiment: Cell cycle phase distribution by PI flow cytometry, tumor cells
Type: cell-based, human
Details: 24 h, RSV 40 μM
Description: For analysis of cell-cycle distribution, the cells were collected after treatment, fixed with 70% ethanol for at least one hour at 4 °C. The cells were stained with propidium iodide (PI) an agent which intercalates into the major groove of double-stranded DNA and produces a highly fluorescent adduct that can be excited at 488 nm with a broad emission around 600 nm. Since PI can also bind to double-stranded RNA, it is necessary to treat the cells with RNase for optimal DNA resolution. Cells (1×10^6 cells/mL) were washed in PBS and centrifuge at 300× g, 5 min at 4 °C. The pellet of the cells were incubated for 10 min at 37 °C with 0.5 mg/sample RNase A and then was added 10 μg/sample of PI staining solution to cell pellet, mix well and incubated 10 min at 37 °C. The samples stored at 4 °C until analyzed by flow cytometry. A minimum of 20,000 events for each sample were collected using a FACS CantoII flow cytometer and ModFIT software (BectonDickinson) and used to determine the cell cycle phase distribution after debris exclusion.
The progression through the cell cycle phases induced by treatment were evaluated by flow cytometry using a FACSCanto II flow cytometer. Data analysis were performed using the ModFit 3.2 program which offers the possibility of evaluating the cell cycle phases distribution (G0/G1, S, G2 + M).

`Oc1ccc(C=Cc2cc(O)cc(O)c2)cc1` [RSV, 3,5,4′-trihydroxystilbene] gave a G0/G1% of 39.05% and a G2/M% of 19.41%.
